Patent US5582828A, “Active fractions of Cordyceps sinensis and method of isolation thereof” (Lin; Ching-Yuang, priority 1995, dated 1996)

How the values were obtained:
cardiovascular system = conditions: in vivo; cited from earlier work
[1] = tested on: activated human mesangial cells; experiment: in vitro inhibition of activated (IL-1 and IL-6) human mesangial cells, [3H]-thymidine incorporation; format: cell-based; conditions: Mesangial cell, n = 3, read-out: in vitro inhibitory action
Text: In terms of activation of mesangial cells, [^3 H]-thymidine incorporation method is used as an index of DNA synthesis. Cultured human mesangial cells are first activated by exposing them to IL-1 and IL-6. The decrease in [^3 H]-thymidine incorporation after exposure to various fractions and compounds in Cordyceps sinensis was used as the in vitro screening method for identifying potential substances which are capable of inhibiting the proliferation of activated human mesangial cells.
Two methods of investigation (in vitro and in vivo) were adopted for the invention discussed in the patent application. One of these utilizes in vitro suppression of activated human mesangial cells as its model: the activity index used is the degree to which activation by interleukins 1 and 6 is suppressed by treatment with the fractions and purified compound H1-A of Cordyceps sinensis. Isotope-labeled [^3 H]-thymidine converted into [^3 H]-thymidine incorporation is the basis by which the degree of activation of mesangial cells is determined (please see Tables 1-1 to 1-5).

SMILES	cardiovascular effect (cardiovascular system)	inhibition at 20 µM ([1]; Table 1-5, 20 μM) [%]	inhibition at 50 µM ([1]; Table 1-5, 50 μM) [%]	inhibition at 75 µM ([1]; Table 1-5, 75 μM) [%]	inhibition at 100 µM ([1]; Table 1-5, 100 μM) [%]
Nc1ncnc2c1ncn2[C@@H]1O[C@H](CO)[C@@H](O)[C@H]1O [Adenosine]	acts to relax vascular smooth muscle and causes vasodilatation	–	–	–	–
CC[C@H](C)C(=O)O[C@H]1C[C@@H](C)C=C2C=C[C@H](C)[C@H](CC[C@@H]3C[C@@H](O)CC(=O)O3)[C@H]21 [Lovastatin, lovastatin]	–	19.8 ± 2	37.1 ± 4.3	60.9 ± 3.8	73 ± 4
